Data published in patent EP1590666B1, “COMPOSITIONS AND METHODS FOR ENHANCING APOPTOSIS” (GENENTECH, INC., priority 2003, dated 2004).
One block for each molecule: values may come before it.

Columns and labels:
XIAP-BIR3 = XIAP-BIR3 (Homo sapiens, UniProt P98170); experiment: fluorescence polarization-based competition assay; type: binding; set-up: X-IAP BIR3 (amino acids residues 241-356); made in house; host or cells: Escherichia coli BL21 (DE3)
Description: (§1) The apparent Kd values can be determined from the EC50 values.
(§2) The apparent Kd values were determined from the EC50 values. […] Samples were read after a 10-minute incubation.

XIAP-BIR2 = target: T1, XIAP-BIR2 (Homo sapiens, UniProt P98170, C202A/C213G); experiment: fluorescence polarization-based competition assay; type: binding; settings: Table 3, positional scanning
T1 construct: X-IAP BIR2 (amino acid residues 124-240 with mutations C202A and C213G); made in house; host or cells: Escherichia coli BL21 (DE3)
Description: as §1, §2

ML-IAP-BIR = target: T2, ML-IAP-BIR (Homo sapiens, UniProt Q96CA5); experiment: fluorescence polarization-based competition assay; type: binding
T2 construct: made in house; host or cells: Escherichia coli BL21 (DE3)
T2 sequence (Q96CA5 63-179): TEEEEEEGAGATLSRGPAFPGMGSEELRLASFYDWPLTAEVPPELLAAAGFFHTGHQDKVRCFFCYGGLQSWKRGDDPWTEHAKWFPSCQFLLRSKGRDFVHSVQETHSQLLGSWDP
Description: as §1, §2

[1] = target: the molecule itself; experiment: crystal structure, self-association

T1 sequence (P98170 124-240 C202A/C213G): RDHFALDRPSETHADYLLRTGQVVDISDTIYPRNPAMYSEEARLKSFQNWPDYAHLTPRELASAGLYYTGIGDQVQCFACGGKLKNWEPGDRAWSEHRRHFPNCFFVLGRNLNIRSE
Chain of XIAP-BIR3 (P98170 241-356): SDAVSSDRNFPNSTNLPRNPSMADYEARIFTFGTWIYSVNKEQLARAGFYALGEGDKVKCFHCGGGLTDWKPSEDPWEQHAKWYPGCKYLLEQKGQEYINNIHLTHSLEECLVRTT

Ki (XIAP-BIR3): 8.5 µM
Molecule: CC(C)[C@H](NC(=O)[C@H](C)N)C(=O)N1CCC[C@H]1C(=O)N[C@@H](Cc1ccc(S(=O)(=O)O)cc1)C(=O)N[C@@H](C)C(=O)N[C@@H](CCC(N)=O)C(=O)N[C@@H](CCCCN)C(=O)N[C@@H](CO)C(=O)N[C@@H](CCC(=O)O)C(=O)O [AVPX2AQKSE]

Ki (XIAP-BIR2): 229 µM
Ki (ML-IAP-BIR): 7.9 µM
Molecule: CC(C)[C@H](NC(=O)[C@H](C)N)C(=O)N1CCC[C@H]1C(=O)N[C@@H](CC1CCCC1)C(=O)N[C@@H](C)C(=O)N[C@@H](CCC(N)=O)C(=O)N[C@@H](CCCCN)C(=O)N[C@@H](CO)C(=O)N[C@@H](CCC(=O)O)C(=O)O [AVPX7AQKSE]

Ki (XIAP-BIR2): 27.7 µM
Ki (ML-IAP-BIR): 0.45 µM
Ki (XIAP-BIR3): 1 µM
Molecule: CC(C)[C@H](NC(=O)[C@H](C)N)C(=O)N1CCC[C@H]1C(=O)N[C@@H](Cc1ccc(I)cc1)C(=O)N[C@@H](C)C(=O)N[C@@H](CCC(N)=O)C(=O)N[C@@H](CCCCN)C(=O)N[C@@H](CO)C(=O)N[C@@H](CCC(=O)O)C(=O)O [AVPX10AQKSE]

B1: ML-IAP-BIR (other, human, UniProt Q96CA5 63-179, looked up)
chain: T2 sequence (Q96CA5 63-179)
notes: range 63-179; Expressed in E. coli BL21(DE3) from pET15b-MLIAPBIR; also called BIR domain of ML-IAP; not shown: possible N-terminal tag from the pET15b vector (purified on Ni-agarose)
binding result [1]: binds
